Experimental data: paper PMC7767506, “Synthesis and Characterization of Store-Operated Calcium Entry Inhibitors Active in the Submicromolar Range” (International Journal of Molecular Sciences, 2020)

Experiments:
[1] = system: IL-2 synthesis by Jurkat T cells; assay: IL-2 ELISA in supernatants of Jurkat cells; type: cell-based, human
Description: We next studied the effect of increasing [P11] on the neo-synthesized IL-2 concentration in the medium of PHA -stimulated Jurkat cells after 24 h.
(§1) Forty-eight-well plates were seeded with 10^6 Jurkat T cells per well. Cells were then incubated for 24 h with or without 10 µg/mL PHA and 0 to 1 µM P11 in complete culture medium. After 24 h, supernatants were collected, and IL-2 amounts were quantified using a Quantikine Human IL-2 Immunoassay (R&D Systems Europe, Lille, France). Optical density (OD) was measured at 450 nm using a Victor3 plate reader (Perkin Elmer, Courtaboeuf, France). The concentration of supernatant IL-2 was determined from the OD curve obtained with the standard. Results were the mean of four repeats. In parallel plates, cell viability was accessed after treatment with trypan blue and counting with a Malassez hematimeter (Sigma-Aldrich, Saint Quentin Fallavier, France).

[2] = system: Orai1-expressing lymphoblastoid cell line; assay: SOCE in Orai1-expressing lymphoblastoid cell line (LCL Orai1+); type: cell-based, human; conditions: 1 µM
Description: (§2) We next tested P11 efficacy on two lymphoblastoid cell lines (“LCL”) established from an Orai1-deficient with a severe combined immunodeficiency (“LCL Orai1−”) and a healthy (“LCL Orai1+”) patients (Figure 3C [19]). […] However, CaCl2 addition after 10 min of TG treatment was only able to induce a massive [Ca^2+]cyt rise in LCL expressing Orai1 proteins, confirming the SOCE default of the SCID patient.
(§3) [Ca^2+]cyt was recorded by a fluorimetric ratio technique as previously described. Leukocytes were spun and resuspended at a density of 10^6 cells/mL in Hepes buffered saline (HBS; 135 mM NaCl, 5.9 mM KCl, 1.2 mM MgCl2, 11.6 mM Hepes, 11.5 mM glucose adjusted to pH 7.3 with NaOH). Due to the presence of 0.002% Ca^2+ in the NaCl, this HBS medium contained 0.1 mM of Ca^2+. […] Ultraviolet light of 360 nm was used for excitation of Indo-1, and emissions at 405 and 480 nm were recorded. […] The maximum Indo-1 fluorescence (Rmax) was obtained by adding 1 µM ionomycin to the cell suspension in the presence of 10 mM extracellular CaCl2. Minimum fluorescence was determined following the depletion of external Ca^2+ with 5 mM EGTA.
(§4) To visualize the SOCE, cells were placed into the quartz cuvette and 0.5 EGTA was added just before the beginning of the recordings. […] In the dose-response experiments, different concentrations of 2-APB and its analogs were added 30 s prior to Ca^2+ readdition.

Jurkat cells [3] = assay: Cell death by trypan blue staining of Jurkat cells; type: cell-based, human
Description: As this diminution in IL-2 synthesis can both be explained by the decrease of its synthesis by all cells, or by a decrease in the number of cells that can synthesize IL-2, we next evaluated cell death by trypan blue staining in the presence of PHA stimulation with and without the addition of compound P11.
as §1

[4] = system: SOCE in U937 (human monocytic lymphoma cell line); assay: Thapsigargin-induced SOCE in U937 cells, Indo-1; type: cell-based
Description: (§5) We also tested P11 on the DG75 (Burkitt B lymphoma), U937 (monocytic lymphoma), and MDA-MB231 (breast carcinoma) cell lines. […] Thus, in several cell lines, full inhibition of the SOCE was already obtained at a concentration of 100 nM (Figure 3B).
as §3, with “Ca^2+. Then, cells were incubated in the dark with 4 μM Indo-1-AM for one hour at room temperature under slow agitation.” for “Ca^2+.”
as §4

[5] = system: SOCE in DG75 (human Burkitt lymphoma cell line); assay: Thapsigargin-induced SOCE in DG75 cells, Indo-1; type: cell-based
Description: as §5
as §3, with “Ca^2+. Then, cells were incubated in the dark with 4 μM Indo-1-AM for one hour at room temperature under slow agitation.” for “Ca^2+.”
as §4

[6] = system: SOCE in MDA-MB231 (breast cancer) cells; assay: Thapsigargin-induced SOCE in MDA-MB231 cells, Indo-1; type: cell-based, human
Description: as §5
as §3, with “Ca^2+. Then, cells were incubated in the dark with 4 μM Indo-1-AM for one hour at room temperature under slow agitation.” for “Ca^2+.”
as §4

[7] = system: Orai1-deficient lymphoblastoid cell line; assay: SOCE in Orai1-deficient lymphoblastoid cell line (LCL Orai1-); type: cell-based, human; conditions: 1 µM
Description: as §2, §3, §4

Jurkat cells [8] = assay: TUNEL apoptosis assay in Jurkat cells; type: cell-based, human
Description: To verify the mechanism of cell death induced by compound P11, we next performed caspase-3 activity assays using the fluorogenic Ac-DEVD-AFC substrate as well as a TUNEL assay.
We measured the apoptosis levels in Jurkat cells by the “in situ cell death detection” kit (Roche Applied Science, Meylan, France). Briefly, 50,000 cells/well were seeded in a 96-well plate and treated with or without 10 µg/mL PHA and 0 to 1 µM P11 for 6, 12, or 24 h. Cells were spun, fixed, and permeabilized according to the manufacturer’s instructions and the terminal transferase dUTP Nick end labelling reaction was performed in the dark during 60 min at 37 °C. For visualization of the results, an epifluorescence microscope (Axioskop, Karl Zeiss, Le Pecq, France) was used at an excitation wavelength of 488 nm, and an emission wavelength of 545 nm. Cells were also loaded with 4’,6’ –diamidino-2-phenylindole (DAPI) to visualize the nuclei. Total cell number (>200) and TUNEL-positive cells were counted in several fields (>5) and the ratio of apoptotic cells was calculated. This experiment was repeated three times.

[9] = system: PHA-stimulated Jurkat cells; assay: PHA-induced Ca2+ mobilization in Jurkat cells, Indo-1; type: cell-based, human
Source text: Having shown that compound P11 was able to block the Jurkat cell SOCE, we next performed experiments using phytohemagglutinin (“PHA”). PHA is commonly used to cross-link the T cell receptor allowing the synthesis of IL-2 and thereafter the T cell activation. […] Noteworthy, PHA was able to induce a weak Ca^2+ release from internal stores (orange curve). […] However, after reaching a peak at 180 s, the [Ca^2+]cyt started to decay and decreased to a value beneath the [Ca^2+]cyt before cell stimulation.
In experiments with PHA, cells were placed in the cuvette, and 0.9 mM CaCl2 was added to reach a 1 mM extracellular concentration. Free Ca^2+ concentrations were calculated using the Bad4 software

2-(dibiphenyl-4-ylboryloxy)ethanamine [P11]
IL-2 synthesis by compound alone ([1]; 1 µM, no PHA): not able to induce IL-2 synthesis
IL-2 concentration in medium ([1]; 10 µg/mL PHA + 1 µM P11, 24 h): 26 ± 6 pg/mL
change of IL-2 synthesis ([1]; 10 µg/mL PHA + 1 µM P11, 24 h, vs PHA alone): −74%
IL-2 corrected for the number of living cells ([1]; PHA + P11 (highest concentration), 24 h): 39.2 ± 8.6 pg/mL
decrease of IL-2 synthesis capacity of living cells ([1]; PHA + P11 vs PHA alone): ≈ 63%
effect on [Ca2+]cyt after SOCE activation [2]: immediate decrease of [Ca^2+]cyt
dead cells (trypan blue) (Jurkat cells [3]; 1 µM P11 alone, 24 h): 4.0 ± 0.4%
dead cells (trypan blue) (Jurkat cells [3]; PHA + 1 µM P11, 24 h): 33.2 ± 1.3%
Ki [4]: 40 ± 5 nM
Ki ([5]; DG75 cells): 32 ± 2 nM
concentration of full SOCE inhibition ([5]; in several cell lines (Figure 3B)): 100 nM
Ki [6]: 50 ± 5 nM
effect on [Ca2+]cyt after SOCE activation [7]: inefficient
apoptotic cells (TUNEL) (Jurkat cells [8]; 1 µM P11 alone, 24 h): ~ 5%
cells with fragmented DNA (TUNEL) (Jurkat cells [8]; 10 µg/mL PHA + 1 µM P11, 24 h): 17.9 ± 1.2%
fold increase of cells with fragmented DNA (Jurkat cells [8]; PHA + P11 at concentrations > 10 nM, vs resting conditions): ≈ 4.5 fold
fold increase of apoptotic cells (Jurkat cells [8]; costimulation PHA + P11 > 10 nM, vs PHA alone (Figure 7 legend)): ≈ 1.5 fold
PHA-induced Ca2+ release from internal stores ([9]; 1 µM): did not affect
PHA-induced Ca2+ mobilization ([9]; increasing [P11], 10 µg/mL PHA, 1 mM extracellular CaCl2): largely inhibited
